Three compounds from patent publication US5075287A, “Muramyl peptide derivatives and immunoregulating compositions containing them” (priority 1989, dated 1991) can be followed below.

Where two headings read alike, the source gives them in different places.

Assay [1] concerns hepatitis B virus surface antigen (HBs). In words: Hepatitis-vaccine enhancing activity (adjuvant activity): anti-HBs IgG in mouse serum by ELISA. Format: in vivo, female CDF1 mice. Particulars: Experiment 1, 5000-fold dilution. In a few lines: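 Female CDF1 mice (n=7) given 0.2 ml i.p. of compound in lipid microspheres (1 mg/ml) mixed 1:1 with HBs antigen (50 μg/ml), boosted identically at 3 weeks. Sera from weekly fundus bleeds before and after boost. Anti-HBs IgG measured by ELISA.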
(In general: In an ELISA, binding on a coated surface is turned into a signal by an enzyme label.)

Assay [2] relates to L-1210 mouse leukemia cells. In words: Activation of macrophages (growth inhibition of tumor cells by intraperitoneal macrophages of treated mice, MTT assay). Format: cell-based. Conditions: macrophages taken 3 days after i.p. 0.2 ml of 500 μg/ml, macrophage:L-1210 20:1, 72 hours. Here is the method:
A compound of the present invention was dissolved in lipidmicrosphere to obtain a solution in a concentration of 500μg/ml, and 0.2 ml of such solution was intraperitoneally administered to each mouse in one group consisting of seven female CDF1 mice. Intraperitoneal macrophages obtained three days after the administration and L-1210 mouse leukemia cells were mixed in the ratio of cell numbers of 20:1, respectively. Two hundred μl of the mixture was placed in each well of one sheet of 96 well microtiter plate. After 72 hours, the increase of the cell number in each well was determined by a MTT assay method. The ratio of the cell number for the mixture of the L-1210 cells and the macrophage relative to the cell number for the L-1210 cells only(growth inhibitory ratio) was determined, and the results are shown in Table 3.
(In general: Tetrazolium dyes change colour on reduction, which living cells bring about.)

Assay [3] concerns influenza HA vaccine (B/Nagasaki/1/87 strain). Format: in vivo, female CDF1 mice. Particulars: Experiment 1, 5000-fold dilution.
The mark [4] stands for this setting: 1 W after i.p. administration, compound in lipidmicrosphere + HBs.
Setting [5] is: 4 W (after secondary stimulation at 3 weeks).
The mark [6] stands for this setting: 5 W (after secondary stimulation at 3 weeks).
[7] abbreviates: 1 W after i.p. administration, compound in lipidmicrosphere + HA vaccine.

On to `CCCCCCCCCCCCCCC(CCCCCCCCCCCCCC)C(=O)O[C@H]1O[C@H](COC(=O)CCCCCCCCC)[C@@H](O)[C@H](O[C@H](C)C(=O)N[C@@H](C)C(=O)N[C@H](CCC(=O)OC)C(N)=O)[C@H]1NC(C)=O` [Example 5], for which the “Anti-HBs IgG antibody level in serum (ELISA absorbance at 415 nm)” value (“Anti-HBs IgG antibody level in serum” below) stood at 0.001 ± 0.001 O.D 415 nm in assay [1] (setting [4]); 0.021 ± 0.001 O.D 415 nm in assay [1] (2 W); 0.048 ± 0.001 O.D 415 nm in assay [1] (3 W); 0.643 ± 0.013 O.D 415 nm in assay [1] (setting [5]); 0.490 ± 0.009 O.D 415 nm in assay [1] (setting [6]). Further, in assay [2], the “Growth inhibitory ratio of L-1210 mouse leukemia cells” value (from here on “Growth inhibitory ratio”) worked out at 57.8%. Besides, the “Anti HA serum antigen value (average value ± S.D.)” value (from here on “Anti HA serum antigen value”) in assay [3] (setting [7]) came to 0 O.D 415 nm; in assay [3] (2 W), 0.091 ± 0.002 O.D 415 nm; in assay [3] (3 W) it was 0.377 ± 0.001 O.D 415 nm; in assay [3] (setting [5]), 1.037 ± 0.027 O.D 415 nm; in assay [3] (setting [6]), 1.068 ± 0.004 O.D 415 nm.
As to `CCCCCCCCCCCCCCC(CCCCCCCCCCCCCC)C(=O)O[C@H]1O[C@H](COC(=O)CCCCCCCCCCCCC)[C@@H](O)[C@H](O[C@H](C)C(=O)N[C@@H](C)C(=O)N[C@H](CCC(=O)OC)C(N)=O)[C@H]1NC(C)=O` [Example 6, N-[2-0-{2-Acetamido-2,3-dideoxy-6-0-tetradecanoyl-1-0-(2-tetradecylhexadecanoyl)-α-D-glucopyranos-3-yl}-D-lactoyl]-L-alanyl-D-isoglutamine methylester], the “Anti-HBs IgG antibody level in serum” value is 0 O.D 415 nm in assay [1] (setting [4]); 0.020 ± 0.002 O.D 415 nm in assay [1] (2 W); 0.069 ± 0.001 O.D 415 nm in assay [1] (3 W); 0.477 ± 0.005 O.D 415 nm in assay [1] (setting [5]); 0.529 ± 0.005 O.D 415 nm in assay [1] (setting [6]). Moreover, in assay [2], the “Growth inhibitory ratio” value was determined as 63.0%. For the same compound, the “Anti HA serum antigen value” value in assay [3] (setting [7]) is 0.001 ± 0.001 O.D 415 nm; in assay [3] (2 W) it was 0.013 ± 0.002 O.D 415 nm; in assay [3] (3 W), 0.259 ± 0.004 O.D 415 nm; in assay [3] (setting [5]), 1.025 ± 0.013 O.D 415 nm; in assay [3] (setting [6]), 1.159 ± 0.013 O.D 415 nm.
As to `CCCCCCCCCCCCCCCCCC(=O)OC[C@H]1O[C@H](OC(=O)C(CCCCCCCCCCCCCC)CCCCCCCCCCCCCC)[C@H](NC(C)=O)[C@@H](O[C@H](C)C(=O)N[C@@H](C)C(=O)N[C@H](CCC(=O)OC)C(N)=O)[C@@H]1O` [Example 7, N-[2-0-{2-Acetamido-2,3-dideoxy-6-0-octadecanoyl-1-0-(2-tetradecylhexadecanoyl)-α-D-glucopyranos-3-yl}-D-lactoyl]-L-alanyl-D-isoglutamine methylester], the “Anti-HBs IgG antibody level in serum” value came to 0 O.D 415 nm in assay [1] (setting [4]); 0.016 ± 0.003 O.D 415 nm in assay [1] (2 W); 0.071 ± 0.004 O.D 415 nm in assay [1] (3 W); 0.426 ± 0.000 O.D 415 nm in assay [1] (setting [5]); 0.470 ± 0.010 O.D 415 nm in assay [1] (setting [6]). Moreover, in assay [2], the “Growth inhibitory ratio” value was found to be 90.2%. Moreover, the “Anti HA serum antigen value” value in assay [3] (setting [7]) is 0.001 ± 0.001 O.D 415 nm; in assay [3] (2 W) it was 0.112 ± 0.003 O.D 415 nm; in assay [3] (3 W), 0.286 ± 0.001 O.D 415 nm; in assay [3] (setting [5]), 1.039 ± 0.010 O.D 415 nm; in assay [3] (setting [6]) it was 1.128 ± 0.026 O.D 415 nm.
